According to patent US20080188481A1 (priority 2002, published 2008):

The compounds below were run on HIV-1 single-round infectious reporter virus (assay: Single-round infectious HIV-1 luciferase reporter virus infection of HeLa CD4 cells (antiviral EC50)). Conditions: Human immunodeficiency virus 1, HeLa, 72 h, read-out: EC50 Group from Table 1.
Format: cell-based
Experimental: • Virus production—Human embryonic Kidney cell line, 293T, was propagated in Dulbecco's Modified Eagle Medium (Invitrogen, Carlsbad, Calif.) containing 10% fetal Bovine serum (FBS, Sigma, St. Louis, Mo.). • Virus infection—Human epithelial cell line, HeLa, expressing the HIV-1 receptor CD4 was propagated in Dulbecco's Modified Eagle Medium (Invitrogen, Carlsbad, Calif.) containing 10% fetal Bovine serum (FBS, Sigma, St. Louis, Mo.) and supplemented with 0.2 mg/mL Geneticin (Invitrogen, Carlsbad, Calif.). Virus-Single-round infectious reporter virus was produced by co-transfecting human embryonic Kidney 293 cells with an HIV-1 envelope DNA expression vector and a proviral cDNA containing an envelope deletion mutation and the luciferase reporter gene inserted in place of HIV-1 nef sequences (Chen et al, Ref. 41). Transfections were performed using lipofectAMINE PLUS reagent as described by the manufacturer (Invitrogen, Carlsbad, Calif.).
• 1. HeLa CD4 cells were plated in 96 well plates at a cell density of 1×10^4 cells per well in 100 μl Dulbecco's Modified Eagle Medium containing 10% fetal Bovine serum and incubated overnight. • 2. Compound was added in a 2 μl dimethylsulfoxide solution, so that the final assay concentration would be ≦10 μM. • 3. 100 μl of single-round infectious reporter virus in Dulbecco's Modified Eagle Medium was then added to the plated cells and compound at an approximate multiplicity of infection (MOI) of 0.01, resulting in a final volume of 200 μl per well. • 4. Virally-infected cells were incubated at 37 degrees Celsius, in a CO2 incubator, and harvested 72 h after infection. • 5. Viral infection was monitored by measuring luciferase expression from viral DNA in the infected cells using a luciferase reporter gene assay kit, as described by the manufacturer (Roche Molecular Biochemicals, Indianapolis, Ind.). Infected cell supernatants were removed and 50 μl of lysis buffer was added per well. After 15 minutes, 50 μl of freshly-reconstituted luciferase assay reagent was added per well. Luciferase activity was then quantified by measuring luminescence using a Wallac microbeta scintillation counter. • 6. The percent inhibition for each compound was calculated by quantifying the level of luciferase expression in cells infected in the presence of each compound as a percentage of that observed for cells infected in the absence of compound and subtracting such a determined value from 100. • 7. An EC50 provides a method for comparing the antiviral potency of the compounds of this invention. The effective concentration for fifty percent inhibition (EC50) was calculated with the Microsoft Excel Xlfit curve fitting software. For each compound, curves were generated from percent inhibition calculated at 10 different concentrations by using a four paramenter logistic model (model 205). Table 1 is the key for the data in Table 2.

| Structure (SMILES) | EC50 [nM] |
| --- | --- |
| CCc1nnc(C(=C2CCN(C(=O)C(=O)c3c[nH]c4c(-n5ccnn5)ncc(OC)c34)CC2)c2ccccc2)o1 [Example 74, 1-[4-(1-Phenyl-1-(5-ethyl-1,3,4-oxadiazol-2-yl)-methylene)-piperidin-1-yl]-2-[4-methoxy-7-(1,2,3-triazol-1-yl)-6-azaindol-3-yl]-ethane-1,2-dione] | < 1000 |
| COc1cnc(-n2ccnn2)c2[nH]cc(C(=O)C(=O)N3CCC(=C(c4ccccc4)c4nnc(C(C)C)o4)CC3)c12 [Example 75, 1-[4-(1-Phenyl-1-(5-isopropyl-1,3,4-oxadiazol-2-yl)-methylene)-piperidin-1-yl]-2-[4-methoxy-7-(1,2,3-triazol-1-yl)-6-azaindol-3-yl]-ethane-1,2-dione] | < 1000 |
| COc1cnc(-n2ccnn2)c2[nH]cc(C(=O)C(=O)N3CCC(=C(c4ccccc4)c4nnc(C5CC5)o4)CC3)c12 [Example 76, 1-[4-(1-Phenyl-1-(5-cyclopropyl-1,3,4-oxadiazol-2-yl)-methylene)-piperidin-1-yl]-2-[4-methoxy-7-(1,2,3-triazol-1-yl)-6-azaindol-3-yl]-ethane-1,2-dione] | < 1000 |
| COc1cnc(-n2ccnn2)c2[nH]cc(C(=O)C(=O)N3CCC(=C(c4ccccc4)c4nnc(O)o4)CC3)c12 [Example 77, 1-[4-(1-Phenyl-1-(5-hydroxy-1,3,4-oxadiazol-2-yl)-methylene)-piperidin-1-yl]-2-[4-methoxy-7-(1,2,3-triazol-1-yl)-6-azaindol-3-yl]-ethane-1,2-dione] | < 1000 |
| COc1cnc(-n2ccnn2)c2[nH]cc(C(=O)C(=O)N3CCC(=C(c4ccccc4)c4cccc(CO)c4)CC3)c12 [Example 78, 1-[4-(1-Phenyl-1-(3-hydroxymethylphenyl)-methylene)-piperidin-1-yl]-2-[4-methoxy-7-(1,2,3-triazol-1-yl)-6-azaindol-3-yl]-ethane-1,2-dione] | < 1000 |
| COc1cnc(-n2cncn2)c2[nH]cc(C(=O)C(=O)N3CCC(=C(c4ccccc4)c4nnc(C)o4)CC3)c12 [Example 79, 1-[4-(1-Phenyl-1-(5-methyl-1,3,4-oxadiazol-2-yl)-methylene)-piperidin-1-yl]-2-[4-methoxy-7-(1,2,4-triazol-1-yl)-6-azaindol-3-yl]-ethane-1,2-dione] | < 1000 |
| COc1cnc(-n2cnc(C)n2)c2[nH]cc(C(=O)C(=O)N3CCC(=C(c4ccccc4)c4nnc(C)o4)CC3)c12 [Example 80, 1-[4-(1-Phenyl-1-(5-methyl-1,3,4-oxadiazol-2-yl)-methylene)-piperidin-1-yl]-2-[4-methoxy-7-(3-methyl-1,2,4-triazol-1-yl)-6-azaindol-3-yl]-ethane-1,2-dione] | < 1000 |
| COc1cnc(-n2cnc(C)n2)c2[nH]cc(C(=O)C(=O)N3CCC(=C(c4ccccc4)c4nnc(C(C)C)o4)CC3)c12 [Example 81, 1-[4-(1-Phenyl-1-(5-isopropyl-1,3,4-oxadiazol-2-yl)-methylene)-piperidin-1-yl]-2-[4-methoxy-7-(3-methyl-1,2,4-triazol-1-yl)-6-azaindol-3-yl]-ethane-1,2-dione] | < 1000 |
| COc1cnc(-n2cnc(C)n2)c2[nH]cc(C(=O)C(=O)N3CCC(=C(c4ccccc4)c4nnc(C5CC5)o4)CC3)c12 [Example 82, 1-[4-(1-Phenyl-1-(5-cyclopropyl-1,3,4-oxadiazol-2-yl)-methylene)-piperidin-1-yl]-2-[4-methoxy-7-(3-methyl-1,2,4-triazol-1-yl)-6-azaindol-3-yl]-ethane-1,2-dione] | < 1000 |
| COc1cnc(-n2cnc(C)n2)c2[nH]cc(C(=O)C(=O)N3CCC(=C(c4ccccc4)c4nnc(O)o4)CC3)c12 [Example 83, 1-[4-(1-Phenyl-1-(5-hydroxy-1,3,4-oxadiazol-2-yl)-methylene)-piperidin-1-yl]-2-[4-methoxy-7-(3-methyl-1,2,4-triazol-1-yl)-6-azaindol-3-yl]-ethane-1,2-dione] | < 1000 |
| COc1cnc(-n2cnc(C)n2)c2[nH]cc(C(=O)C(=O)N3CCC(=C(c4ccccc4)c4cccc(CO)c4)CC3)c12 [Example 84, 1-[4-(1-Phenyl-1-(3-hydroxymethylphenyl)-methylene)-piperidin-1-yl]-2-[4-methoxy-7-(3-methyl-1,2,4-triazol-1-yl)-6-azaindol-3-yl]-ethane-1,2-dione] | < 1000 |
| COc1cnc(-n2cnc(C)n2)c2[nH]cc(C(=O)C(=O)N3CCC(=C(c4ccccc4)c4cc(F)cc(F)c4)CC3)c12 [Example 85, 1-[4-(1-Phenyl-1-(3,5-difluorophenyl)-methylene)-piperidin-1-yl]-2-[4-methoxy-7-(3-methyl-1,2,4-triazol-1-yl)-6-azaindol-3-yl]-ethane-1,2-dione] | < 1000 |
| CCOC(=O)c1cc(C(=C2CCN(C(=O)C(=O)c3c[nH]c4c(-n5cnc(C)n5)ncc(OC)c34)CC2)c2ccccc2)n[nH]1 [Example 87] | < 1000 |
| COc1cnc(-n2cncn2)c2[nH]cc(C(=O)C(=O)N3CCC(=C(Br)c4ccccc4)CC3)c12 [Example 88] | < 1000 |
| COc1cnc(-c2cnccn2)c2[nH]cc(C(=O)C(=O)N3CCC(=C(Br)c4ccccc4)CC3)c12 [Example 89] | < 1000 |
| COc1cnc(-c2cnccn2)c2[nH]cc(C(=O)C(=O)N3CCC(=C(c4ccccc4)c4nccs4)CC3)c12 [Example 90] | < 1000 |
| COc1cnc(-c2cnccn2)c2[nH]cc(C(=O)C(=O)N3CCC(=C(c4ccccc4)c4csc(C)n4)CC3)c12 [Example 91] | < 1000 |
| COc1cnc(-c2cnccn2)c2[nH]cc(C(=O)C(=O)N3CCC(=C(c4ccccc4)c4cnco4)CC3)c12 [Example 92] | < 1000 |
| COc1cnc(-c2cnccn2)c2[nH]cc(C(=O)C(=O)N3CCC(=C(c4ccccc4)c4ccc(F)cc4)CC3)c12 [Example 93] | < 1000 |
| COc1cnc(-c2cnccn2)c2[nH]cc(C(=O)C(=O)N3CCC(=C(c4ccccc4)c4cccc(F)c4)CC3)c12 [Example 94] | < 1000 |
| COc1cnc(-n2ccc(C)n2)c2[nH]cc(C(=O)C(=O)N3CCC(=C(c4ccccc4)c4nccs4)CC3)c12 [Example 95] | < 1000 |
| COc1cnc(-n2ccc(C)n2)c2[nH]cc(C(=O)C(=O)N3CCC(=C(c4ccccc4)c4cnccn4)CC3)c12 [Example 96] | < 1000 |
| COc1cnc(-n2ccc(C)n2)c2[nH]cc(C(=O)C(=O)N3CCC(=C(c4ccccc4)c4ccc(F)cc4)CC3)c12 [Example 97] | < 1000 |
| COc1cnc(-n2ccc(C)n2)c2[nH]cc(C(=O)C(=O)N3CCC(=C(c4ccccc4)c4cccc(F)c4)CC3)c12 [Example 98] | < 1000 |
| COc1cnc(-n2ccc(C)n2)c2[nH]cc(C(=O)C(=O)N3CCC(=C(c4ccccc4)c4nnc(C)o4)CC3)c12 [Example 99] | < 1000 |
| COc1cnc(-n2ccc(C)n2)c2[nH]cc(C(=O)C(=O)N3CCC(=C(c4ccccc4)c4csc(C)n4)CC3)c12 [Example 100] | < 1000 |
| N#CC(=C1CCN(C(=O)C(=O)c2c[nH]c3c(Cl)ccnc23)CC1)c1ccccc1 [Example 101, {1-[2-(7-Chloro-1H-pyrrolo[3,2-b]pyridin-3-yl)-2-oxo-acetyl]-piperidin-4-ylidene}-phenyl-acetonitrile] | < 1000 |
| N#CC(=C1CCN(C(=O)C(=O)c2c[nH]c3c(-c4cnccn4)ccnc23)CC1)c1ccccc1 [Example 102, {1-[2-Oxo-2-(7-pyrazin-2-yl-1H-pyrrolo[3,2-b]pyridin-3-yl)-acetyl]-piperidin-4-ylidene}-phenyl-acetonitrile] | < 1000 |
